Results on 4 compounds are retold here after US20250002464A1, “NOVEL COMPOUND AND PHARMACEUTICAL COMPOSITION COMPRISING SAME” (SAPIENSBIO INC., priority 2021, published 2025).

The subject of assay [1] is α-SMA. Kind of assay: α-SMA expression inhibitory ability in MRC5 cell line (Western blotting). In kind it is cell-based. The note with it: TGF-β1 (10 ng/mL), 72 hours, relative to TGF-β1 only. In a few lines: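 MRC5 cells given compound at 10 μM, then TGF-β1 (10 ng/mL) 2 h later; after 72 h, lysates probed for α-SMA by Western blot. Inhibition is α-SMA level relative to TGF-β1 alone, binned A ≥70%, B 50–<70%, C <50%.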
A general note: A western blot detects proteins with antibodies after separation by electrophoresis.

Assay [2] deals with MCR5 cell line. The assay is described as follows: intracellular F-actin polymerization, TGF-β1-treated cells, confocal microscope. It is filed as cell-based. Conditions: 10 μM along with TGF-β1 (10 ng/mL), 48 hours (FIGS. 2A and 2B). The source says: F-actin polymerization activates transcription factors involved in the activation of myofibroblasts and the initiation of fibrosis. Accordingly, when F-actin polymerization decreases, the expression of fibrosis-causing genes by the transcription factors may be inhibited, and the activation and fibrosis of muscle fiber cells may be reduced. Therefore, in this example, it was confirmed whether the compounds according to the present invention are effective in inhibiting F-actin polymerization.
An MCR5 cell line was dispensed at 1×10^3 cells/well in a 96-well black micro plate and cultured in Medium 1 (10% FBS-containing MEM) in 5% CO2 at 37° C. for 24 hours. Subsequently, the above medium was exchanged with Medium 2 (0.5% FBS-containing MEM), a compound of the present invention was treated at 10 μM along with TGF-β1 (10 ng/mL), and the cells were incubated for 48 hours. After removing the entire batch, the cells were treated with each of CellMask Orange Actin Tracking Stain (Invitrogen) and NucBlue Live ReadyProbes (Invitrogen) to performing F-actin and cell nucleus staining in accordance with the manufacturer's recommended conditions. Cells treated with the staining reagents were incubated for 30 minutes at 5% CO2 and 37° C. while blocking light. After completing the incubation, the staining reagents were removed, fresh Medium 1 was added to the cells at 100 μL/well, and then the cells were incubated for 5 minutes, followed by removal of the medium. The above process was repeated three times. To observe the stained F-actin and cell nucleus, PBS was added to the plate at 100 μL/well, and then the cells were photographed using a confocal microscope (Leica) and analyzed using Image J software.

Assay [3] deals with Arp2/3 complex. Kind of assay: in vitro actin polymerization test (pyrene-labeled actin). It is filed as biochemical. The note with it: 10 μM, VCA domain protein, spherical actin monomers, 1 hour, compared to control (FIG. 1). As to the method:
Although actin polymerization, which is a process of forming actin filaments from actin monomers, is involved in controlling cell movement, tissue fibrosis may be caused by the promotion of excessive α-SMA expression and induction of myofibroblast activation. Accordingly, an in vitro actin polymerization test was performed to confirm the actin polymerization controlling function of the compounds according to the present invention.
Specifically, a pyrene-labeled spherical actin stock was diluted with general actin buffer (5 mM Tris-HCl pH 8.0, 0.2 mM CaCl2)) and incubated at 4° C. for 1 hour, thereby producing spherical actin monomers. Afterward, 80% of a supernatant was recovered by centrifugation at 20,000×g and 4° C. for 3 hours, and 0.1 mg/mL spherical actin monomers were prepared. The Arp2/3 complex, the VCA domain protein, and Compound 12, 38, or 59 (10 μM each) according to the present invention were added to the spherical actin monomers and an actin polymerization buffer and reacted at room temperature for 1 hour. The increased fluorescence intensity during the reaction from the spherical actin monomer to a fibrous actin polymer was measured using a microplate reader at an excitation wavelength of 360 nm and an emission wavelength of 407 nm. The degree of actin polymerization was shown relative to the maximum polymerization rate (arbitrary units).

Assay [4] deals with fibronectin. Kind of assay: fibronectin protein level by Western blotting in TGF-β1-treated fibroblasts. In kind it is cell-based. The note with it: MRC5 cells, 5, 10, or 20 μM, TGF-β1 (10 ng/mL), 70 hours. The source says:
(§1) α-SMA protein is a marker of activated myofibroblasts, which are the main effector cells of fibrosis, myofibroblasts with increased α-SMA expression are known to produce a fibrotic protein such as collagen type 1 and cause fibrosis. Therefore, in this example, it was confirmed whether the compound according to the present invention is effective in inhibiting fibrosis by reducing the expression of α-SMA and other pro-fibrotic factors (COL1A1, COL4A1, fibronectin, and p-SMAD2).
(§2) Specifically, lung tissue-derived fibroblasts, MRC5 cells, were treated with Compound 59 according to the present invention (5, 10, or 20 μM), nintedanib (1 μM), or DMSO, and then 2 hours later, treated with TGF-β1 (10 ng/mL). After 70 hours, the cells were lysed in RIPA buffer (50 mM Tris-HCl, 150 mM NaCl, 1% NP-40, 0.5% sodium deoxycholate, 0.1% SDS, protease inhibitor & phosphatase inhibitor cocktail, pH 8.0), which had been cooled to 4° C. The cell lysate was centrifuged at 4° C. at a speed of 15,000×g for 30 minutes, and then the supernatant was collected. After matching the total amount of proteins in the supernatant of each sample (15 to 30 μg), the proteins were separated according to molecular weight using SDS polyacrylamide gel electrophoresis (SDS-PAGE). […]

In assay [5] the test system is p-SMAD2. The assay is described as follows: phosphorylation of SMAD2 by Western blotting in TGF-β1-treated fibroblasts. In kind it is cell-based. Conditions: TGF-β1 (10 ng/mL), 70 hours.
Text: as §1, §2

Assay [6] relates to α-SMA. Kind of assay: α-SMA protein level by Western blotting in TGF-β1-treated fibroblasts. It is filed as cell-based. The note with it: MRC5 cells, 5, 10, or 20 μM, TGF-β1 (10 ng/mL), 70 hours.
Text: as §1, §2

The subject of assay [7] is COL1A1. The assay is described as follows: COL1A1 protein level by Western blotting in TGF-β1-treated fibroblasts. It is filed as cell-based. The note with it: MRC5 cells, 5, 10, or 20 μM, TGF-β1 (10 ng/mL), 70 hours.
Text: as §1, §2

The subject of assay [8] is COL4A1. Kind of assay: COL4A1 protein level by Western blotting in TGF-β1-treated fibroblasts. It is filed as cell-based. Conditions: MRC5 cells, 5, 10, or 20 μM, TGF-β1 (10 ng/mL), 70 hours.
Text: as §1, §2

For assay [9] the following is noted: clinical use in IPF patients; cited from earlier work.

As to `CC(C(=O)N1CCN(c2ccccc2)c2cc(F)ccc21)N1CCCCC1` (stereo not shown) [Compound 12, 1-(6-fluoro-4-phenyl-3,4-dihydroquinoxaline-1(2H)-yl)-2-(piperidin-1-yl)propan-1-one], in [1], the inhibition (as a rule, the change of the read-out against control, counted positive when it falls) at 10 µM was ≥ 70%. Further, the “intracellular F-actin polymerization” value in assay [2] is reported as “significantly reduced”. The “actin polymerization activity (maximum polymerization rate)” value in assay [3] is “decreased compared to the control”.
Taken in the same sequence, the figures for `O=C(CCN1CCCCC1)N1CCN(c2ccc(F)cc2)c2cc(F)ccc21` [Compound 38, 1-(6-fluoro-4-(4-fluorophenyl)-3,4-dihydroquinoxaline-1(2H)-yl)-3-(piperidin-1-yl)propan-1-one] were ≥ 70%, “significantly reduced” and “decreased compared to the control”.
For `CC(C(=O)N1CCN(c2ccccc2)c2ccccc21)N1CCCC[C@H]1C` (stereo partly drawn) [Compound 59, 2-((R)-2-methylpiperidin-1-yl)-1-(4-phenyl-3,4-dihydroquinoxaline-1(2H)-yl)propan-1-one phosphate], the fibronectin protein level entry in assay [4] is listed as “greatly decreased”. In assay [1], the inhibition at 10 µM was < 50%. The “phosphorylation of SMAD2 protein” value in [5] (MRC5 cells, 5, 10, or 20 μM) is on record as “decreased in a concentration-dependent manner”. Moreover, the “phosphorylation of SMAD2 protein compared to nintedanib” value in assay [5] (MRC5 cells, compared to nintedanib (1 μM)) was “reduced to a greater extent”. Further, in [6], the α-SMA protein level entry is given as “significantly decreased”. The COL1A1 protein level entry in assay [7] is listed as “greatly decreased”. For the same compound, the “intracellular F-actin polymerization” value in [2] is “significantly reduced”. The “actin polymerization activity (maximum polymerization rate)” value in assay [3] is on record as “decreased compared to the control”. In addition, in assay [8], the COL4A1 protein level result was “greatly decreased”.
Consider `Cc1ccc(=O)n(-c2ccccc2)c1` [Pirfenidone], for which the “improvement in lung function (treatment effect) in IPF” value in [9] is given as “about 10%”.
